Here are results for 30 molecules from patent publication US8946260B2, “17α-hydroxylase/C17,20-lyase inhibitors” (Novartis AG, priority 2010, dated 2015).

Structures are written as SMILES.

The first experiment addresses T1, recombinant Human CYP17 enzyme (17-20 lyase) (Homo sapiens, UniProt P05093).
T1 construct: made in house; host or cells: A549 cells, adenoviral expression system; purified cell membrane preparations
T1 sequence (P05093 1-508): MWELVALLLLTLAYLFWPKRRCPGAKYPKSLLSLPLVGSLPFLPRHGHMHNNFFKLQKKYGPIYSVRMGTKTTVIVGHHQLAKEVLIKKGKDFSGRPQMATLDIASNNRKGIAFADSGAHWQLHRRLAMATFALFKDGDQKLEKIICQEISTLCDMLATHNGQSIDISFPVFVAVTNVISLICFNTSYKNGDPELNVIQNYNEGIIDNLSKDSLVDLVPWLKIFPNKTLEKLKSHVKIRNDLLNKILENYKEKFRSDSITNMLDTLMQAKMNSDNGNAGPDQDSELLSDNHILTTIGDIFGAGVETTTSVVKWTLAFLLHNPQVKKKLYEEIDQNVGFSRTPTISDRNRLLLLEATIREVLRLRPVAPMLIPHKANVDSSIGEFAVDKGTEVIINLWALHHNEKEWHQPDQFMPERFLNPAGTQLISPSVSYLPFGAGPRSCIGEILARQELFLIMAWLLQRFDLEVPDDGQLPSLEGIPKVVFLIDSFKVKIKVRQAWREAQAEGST
Nature of the experiment: Cytochrome P450, 17-20 lyase (CYP17-lyase) assay, 17-α-hydroxy pregnenolone [21-3H] as substrate. Type of experiment: biochemical.
Conditions: not given
The source says:
1) Cytochrome P450, 17-20 Lyase (CYP17-Lyase) Assay Development Using Recombinant Human CYP17 Enzyme and 17-α-Hydroxy Pregnenolone [21-3H] as the Substrate.
Cytochrome P450, 17-α-Hydroxylase, 17-20 lyase (CYP17) is a multi functional enzyme that plays a key role in the biosynthesis of steroid hormones. It catalyses both conventional hydroxylation and also the carbon-carbon bond cleavage reactions (Peter Lee-Robichaud et al, Biochem. J, (1997) 321, 857-63). In the hydroxylation reaction, it converts progesterone and pregnenolone to the corresponding hydroxylated products 17-α-hydroxy progesterone and 17-α-hydroxy pregnenolone. In the lyase reaction, it catalyzes the conversion of these hydroxylated substrates to Androstenedione and Dehydroepiandrosterone (DHEA) respectively. In the Cyp17 lyase assay described here, the conversion of 17-α-hydroxy pregnenolone to Dehydroepiandrosterone and acetic acid is being monitored.
Assay method was adopted from a published protocol with some modifications to suit our requirements (Dmitry N Grigoryev et al, Analytical Biochemistry, (1999) 267, 319-330). The conversion of 17-α-hydroxy pregnenolone to Dehydroepiandrosterone is accompanied by the release of acetic acid. In the Cyp17 lyase assay, 17-α-hydroxy pregnenolone labeled with tritium (3H) at position 21 is used as the substrate. Chloroform extraction removes the radioactive steroids and acetic acid is taken into aqueous layer. The tritiated acetic acid released in the assay thus extracted is quantified to determine the enzyme activity.
Initial buffer conditions were, 50 mM Phosphate buffer, pH 7.5 was used as the starting buffer for Cyp17 lyase activity based on the data published in US patent publication No. US2004/0198773 A1. […] Human Cyp 17 gene was cloned and expressed in Adenoviral expression system in A549 cell lines. The purified cell membrane preparations were used as the source for Human CYP17 enzyme. Total protein concentration: 8 mg/mL.
For routine screening, the assay was set up with 16 μg of enzyme in 50 μL reaction volume. 17α-hydroxy pregnenolone [21-3H] was added to a final concentration of 0.25 μM. NADPH is used at a final concentration of 4.2 mM. Total reaction volume was made up to 50 μL with 50 mM Phosphate buffer pH 7.5. The reaction mixture was incubated at room temperature for 90 minutes with gentle shaking. The reaction was stopped by the addition of 100 μL of buffer. 500 μL of 5% freshly prepared activated charcoal was added to the solution and mixed well by vortexing. The samples were centrifuged at 17568×g for 5 minutes. (14000 rpm). The supernatant was carefully transferred to fresh tube and 1.3 mL of scintillation fluid was added, mixed by vortexing.
The radioactivity was measured in a 1450 MicroBeta TriLux™ scintillation counter from Wallac-Perkin Elmer®, USA. The measurements were carried out in 2.0 mL Eppendorf™ tubes. Each tube was counted for 1 minute. The amount of tritiated acetic acid released is proportional to the lyase activity. Percent lyase activity in presence of inhibitor was calculated using the formula given below.
[formula] • Sample: Enzyme reaction in presence of inhibitor. • Positive control: Enzyme reaction without inhibitor but containing DMSO at 1% final concentration. • Blank—Contains all reagents except enzyme. • % Inhibition=100%−% Lyase activity
For IC50 determination, the % inhibition was plotted as a function of inhibitor concentration. The data was fitted to sigmoidal equation using Graphpad Prism® software IV to generate IC50 values.
As to `CCn1c2c(c3cc(F)ccc31)C(=O)N(c1cnccc1C)CC2` [Example 59A, 5-ethyl-8-fluoro-2-(4-methylpyridin-3-yl)-2,3,4,5-tetrahydro-1H-pyrido[4,3-b]indol-1-one], the IC50 came to 29 nM.

Staying with this experiment, now noted: at 10 μM; read-out: hCYP17 Lyase % Inh.
On to `Cc1ccncc1-n1ccc2ccc(NC(=O)C3CC3)cc2c1=O` [Example 24A, Cyclopropanecarboxylic acid [2-(4-methyl-pyridin-3-yl)-1-oxo-1,2-dihydro-isoquinolin-7-yl]-amide], for which the inhibition at 10 µM came to 53%. Still for that read-out and setting: to `Cc1ccncc1N1CCc2sccc2C1=O` [Example 7A, 5-(4-Methyl-pyridin-3-yl)-6,7-dihydro-5H-thieno[3,2-a]pyridin-4-one] belongs 75%; to `Cc1ccncc1N1CCc2scc(-c3ccc(F)cc3)c2C1=O` [Example 15A, 3-(4-Fluoro-phenyl)-5-(4-methyl-pyridin-3-yl)-6,7-dihydro-5H-thieno[3,2-c]pyridin-4-one], 35%; to `Cc1ccncc1N1CCc2c(Cl)cccc2C1=O` [Example 12A, 5-Chloro-2-(4-methyl-pyridin-3-yl)-3,4-dihydro-2H-isoquinolin-1-one], 64%. Still for that read-out and setting: to `Cc1ccncc1N1CCc2cc(Cl)c(Cl)cc2C1=O` [Example 41A, 6,7-dichloro-2-(4-methylpyridin-3-yl)-3,4-dihydroisoquinolin-1 (2H)-one] belongs 10%.

The experiment is the same for the next values; noted with them: human CYP17 lyase; substrate 0.25 μM; room temperature, 90 minutes; read-out: Lyase IC 50 nM Human.
Regarding `COc1cccc2c1CCN(c1cnccc1C)C2=O` [Example 13A, 5-Methoxy-2-(4-methyl-pyridin-3-yl)-3,4-dihydro-2H-isoquinolin-1-one], the IC50 turned out to be 917 nM. The same measure, in the same setting: under `Cc1ccncc1N1CCc2c(sc3ccc(F)cc23)C1=O` [Example 45A, 6-Fluoro-2-(4-methyl-pyridin-3-yl)-3,4-dihydro-2H-benzo[4,5]thieno[2,3-c]pyridin-1-one] stands 211 nM; under `Cc1ccncc1N1C(=O)c2cc(C(F)(F)F)ccc2CC1C` (stereo not drawn) [Example 48A, 3-Methyl-2-(4-methyl-pyridin-3-yl)-7-trifluoromethyl-3,4-dihydro-2H-isoquinolin-1-one], 16 nM; under `Cc1ccncc1N1CCc2ccc(C(F)(F)F)cc2C1=O` [Example 4A, 2-(4-Methyl-pyridin-3-yl)-7-trifluoromethyl-3,4-dihydro-2H-isoquinolin-1-one], 5.5 nM.

As for `Cc1ccncc1N1CC(C)(C)c2ccc(C(F)(F)F)cc2C1=O` [Example 20A, 4,4-Dimethyl-2-(4-methyl-pyridin-3-yl)-7-trifluoromethyl-3,4-dihydro-2H-isoquinolin-1-one], the IC50 was 369 nM. The same measure, in the same setting: to `Cc1ccncc1N1CCc2cnccc2C1=O` [Example 67A, 2-(4-methylpyridin-3-yl)-3,4-dihydro-2,6-naphthyridin-1(2H)-one] belongs 716 nM; to `O=C1c2cc(Cl)c(F)cc2CCN1c1cnccc1C(F)(F)F` [Example 80A, 7-chloro-6-fluoro-2-(4-(trifluoromethyl)pyridin-3-yl)-3,4-dihydroisoquinolin-1(2H)-one], 173 nM. In the case of `Cc1ccncc1N1CCc2ccccc2C1=O` [Example 23A, 2-(4-Methyl-pyridin-3-yl)-3,4-dihydro-2H-isoquinolin-1-one], the IC50 came out at 227 nM. The same measure, in the same setting: to `Cc1ccncc1N1CCc2ccc(O)cc2C1=O` [Example 27A, 7-Hydroxy-2-(4-methyl-pyridin-3-yl)-3,4-dihydro-2H-isoquinolin-1-one] belongs 83 nM; to `O=c1c2c(ccn1-c1cnccc1C(F)(F)F)[nH]c1ccc(F)cc12` [Example 64A, 8-fluoro-2-(4-(trifluoromethyl)pyridin-3-yl)-2,5-dihydro-1H-pyrido[4,3-b]indol-1-one], 829 nM; to `O=C1c2c(ccc(C(F)(F)F)c2F)CCN1c1cnccc1C(F)(F)F` [Example 77A, 8-fluoro-7-(trifluoromethyl)-2-(4-(trifluoromethyl)pyridin-3-yl)-3,4-dihydroisoquinolin-1(2H)-one], 167 nM. Still for that read-out and setting: to `Cn1cncc1N1CCc2ccc(C(F)(F)F)cc2C1=O` [Example 54A, 2-(1-methyl-1H-imidazol-5-yl)-7-(trifluoromethyl)-3,4-dihydroisoquinolin-1(2H)-one] belongs 19 nM; to `O=C1c2cc3[nH]ncc3cc2CCN1c1cnccc1C(F)(F)F` [Example 72A, 7-(4-(trifluoromethyl)pyridin-3-yl)-6,7-dihydro-1H-pyrazolo[4,3-g]isoquinolin-8(5H)-one], 730 nM. `Cc1ccncc1N1CCc2ccc(Cl)c(F)c2C1=O` [Example 33A, 7-chloro-8-fluoro-2-(4-methylpyridin-3-yl)-3,4-dihydroisoquinolin-1(2H)-one]: the IC50 is 13 nM.

Take `O=C1c2cc(C(F)(F)F)ccc2CCN1c1cnccc1C1CC1` [Example 73A, 2-(4-cyclopropylpyridin-3-yl)-7-(trifluoromethyl)-3,4-dihydroisoquinolin-1(2H)-one]: the IC50 turned out to be 14 nM. On the same count and under the same terms, under `Cc1ccncc1N1CCc2sc(-c3ccc(F)cc3)cc2C1=O` [Example 14A, 2-(4-Fluoro-phenyl)-5-(4-methyl-pyridin-3-yl)-6,7-dihydro-5H-thieno[3,2-c]pyridin-4-one] stands 755 nM.

For the molecule `CC1Cc2ccc(C(F)(F)F)cc2C(=O)N1c1cnccc1C(F)(F)F` (stereo not drawn) [Example 70A, 3-methyl-7-(trifluoromethyl)-2-(4-(trifluoromethyl)pyridin-3-yl)-3,4-dihydroisoquinolin-1(2H)-one], the IC50 was determined as 744 nM. Same read-out and setting: under `O=C1c2cc(C(F)(F)F)ccc2CCN1c1cnccc1CN1CCCC1` [Example 52A, 2-(4-(Pyrrolidin-1-ylmethyl)pyridin-3-yl)-7-(trifluoromethyl)-3,4-dihydroisoquinolin-1(2H)-one] stands 556 nM; under `Cc1ccncc1N1CCc2ccc3ncsc3c2C1=O` [Example 66A, 8-(4-methylpyridin-3-yl)-7,8-dihydrothiazolo[4,5-h]isoquinolin-9(6H)-one], 11 nM. Same read-out and setting: to `COc1cc2c(cc1Cl)C(=O)N(c1cnccc1C1CC1)CC2` [Example 89A, 7-chloro-2-(4-cyclopropylpyridin-3-yl)-6-methoxy-3,4-dihydroisoquinolin-1(2H)-one] belongs 10 nM.

As for `CCn1c2c(c3ccccc31)CC(C)N(c1cccnc1)C2=O` (stereo not drawn) [Example 42A, 9-ethyl-3-methyl-2-(pyridin-3-yl)-2,3,4,9-tetrahydro-1H-pyrido[3,4-b]indol-1-one], the IC50 was 55 nM. Consider `O=C1c2cc(C(F)(F)F)ccc2CCN1c1cncc2ccccc12` [Example 19A, 7-Trifluoromethyl-3,4-dihydro-[2,4′]biisoquinolinyl-1-one], for which the IC50 was 44 nM.

Take `CCc1ccncc1N1CCc2ccc(Cl)cc2C1=O` [Example 75A, 7-chloro-2-(4-ethylpyridin-3-yl)-3,4-dihydroisoquinolin-1(2H)-one]: the IC50 came to 8 nM. Still for that read-out and setting: to `Cc1ccncc1N1CCc2ccc(Cl)cc2C1=O` [Example 2A, 7-Chloro-2-(4-methyl-pyridin-3-yl)-3,4-dihydro-2H-isoquinolin-1-one] belongs 37 nM.
